Test results as given in patent US10130619B2, “Amido thiadiazole derivatives as NADPH oxidase inhibitors” (GENKYOTEX SUISSE SA, priority 2014, dated 2018).

Molecular target: hNOX1 (Homo sapiens (Human), UniProt Q9Y5S8)
Assay: ROS production measurement on hNOX1 membranes (Amplex Red fluorescence assay, assay 1)
Type: biochemical
Settings: assay 1: membranes from CHO cells overexpressing hNox1, Amplex Red/HRP fluorescence, NADPH 30 μM; non linear regression (GraphPad Prism); read-out: Nox1 inhibitory constant Ki
Method: Reactive oxygen species (ROS) production generated by hNOX1 enzyme was measured by fluorescence in both cellular and membrane-based assays using the Amplex® Red reagent. In the presence of horseradish peroxidase (HRP), the Amplex® Red reagent (10-acetyl-3,7-dihydroxyphenoxazine, AR), which is a colorless and nonfluorescent derivative of dihydroresorufin, reacts with H2O2 with a 1:1 stoichiometry to produce highly fluorescent resorufin at an excitation and emission wavelengths of 544 nm and 590 nm, respectively.
After resuspension in sonication buffer (11% sucrose, 120 mM NaCl, 1 mM EGTA in PBS, pH 7.4), cells were broken by sonication and centrifuged (200 g, 10 min). The supernatant was layered onto a 17/40% (w/v) discontinuous sucrose gradient and centrifuged (150,000 g for 30 min). Membrane fractions were collected from the 17/40% interface, aliquoted in 10 μl samples and were stored at −80° C. Protein concentration was determined with Bradford reagent. Flavin Adenine Dinucleotide (FAD) (catalog # F6625-500MG), MgCl2 (catalog # M8266-100G), Phosphatidic Acid (PA) (catalog # P3591-50MG) were purchased from Sigma-Aldrich. […] NADPH (catalog #A1395, 0500) was purchased from Applichem. Amplex red (AR) (catalog # A22177) was purchased from Invitrogen. […] FLUOstar OPTIMA microplate reader was supplied by BMG Labtech (Germany). Zephyr® Compact Liquid Handling Workstation was supplied by PerkinElmer (Germany).
Assay 1: ROS Production Measurement on hNOX1 Membranes
All solutions were placed on ice and protected from light.
The NADPH was dissolved in water at a concentration of 12 mM and was transferred in a metal transfer plate kept at 4° C. The NADPH was added to the assay plate to initiate the reaction just before the measurement.
Serial dilution (1:3, 10 serial dilution) of the compounds was performed in 100% DMSO in 96 well polypropylene plate—Row B-H […], Row A, Column 1-10 contained reference compound. Starting concentration was 10^−2 M (10 mM). Final concentration in assay was 10^−4 M (100 μM). Compounds were diluted twice in PBS buffer by transferring 30 μl/well of PBS into 30 μl/well compounds sample in DMSO using Zephyr® Compact Liquid Handling Workstation. Control wells-columns 1 and 12-contained 60 μl DMSO in 50% PBS pH7.
Reaction mixture is dispensed using Zephyr® Compact Liquid Handling Workstation. 90 μl of mix with membrane were dispensed into 96 well black plates—Column 2-11, Column 1 Row A-D, Column 12 Row E-H. 90 μl of control mix were dispensed into assay plate—Column 1 Row E-H, Column 12 Row A-D, which are wells for measuring background signal. 2 μl of compounds were dispensed into each well of assay plate using Zephyr® Compact Liquid Handling Workstation. The reaction mixture with compounds was incubated in assay plates for 20 min at 37° C. in a Titramax microplate incubator with gentle agitation. 10 μl of NADPH is dispensed to the assay plate. Fluorescence reading was recorded with the FLUOstar OPTIMA microplate reader for 10 min at 37° C. (8 cycles, 1 cycle duration 55 sec).

hNOX1, sequence (Q9Y5S8 whole entry): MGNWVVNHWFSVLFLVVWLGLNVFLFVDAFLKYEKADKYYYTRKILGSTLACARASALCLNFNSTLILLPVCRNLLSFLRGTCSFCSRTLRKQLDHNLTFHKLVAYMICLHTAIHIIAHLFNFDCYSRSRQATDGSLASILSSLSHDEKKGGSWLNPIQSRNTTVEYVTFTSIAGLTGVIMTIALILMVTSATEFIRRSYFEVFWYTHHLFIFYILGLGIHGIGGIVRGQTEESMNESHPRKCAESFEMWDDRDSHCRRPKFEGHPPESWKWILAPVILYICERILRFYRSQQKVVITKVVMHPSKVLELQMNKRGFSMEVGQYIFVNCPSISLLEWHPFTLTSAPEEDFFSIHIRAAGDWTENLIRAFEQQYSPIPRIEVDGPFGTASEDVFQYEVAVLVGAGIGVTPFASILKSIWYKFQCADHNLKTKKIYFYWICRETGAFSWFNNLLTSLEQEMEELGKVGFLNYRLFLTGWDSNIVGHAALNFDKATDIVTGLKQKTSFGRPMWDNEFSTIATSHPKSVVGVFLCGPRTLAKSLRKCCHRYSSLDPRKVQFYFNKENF
hNOX1, sequence (P13498 whole entry partner): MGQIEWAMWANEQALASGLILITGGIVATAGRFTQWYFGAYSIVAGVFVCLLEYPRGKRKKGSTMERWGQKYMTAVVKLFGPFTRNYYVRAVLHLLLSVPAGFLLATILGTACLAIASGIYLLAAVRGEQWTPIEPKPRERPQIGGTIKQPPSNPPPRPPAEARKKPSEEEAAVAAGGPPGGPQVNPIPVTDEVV

Row | Compound | Ki [nM]
1 | COc1cc(C(=O)Nc2nnc(-c3ccncc3)s2)ccc1OCc1nccn1C [Example 19, 3-methoxy-4-((1-methyl-1H-imidazol-2-yl)methoxy)-N-(5-(pyridin-4-yl)-1,3,4-thiadiazol-2-yl)benzamide] | 220
2 | COCCNc1cc(C(=O)Nc2nnc(-c3ccncc3)s2)cnc1O[C@@H](C)c1ccccc1 [Example 22, (S)-5-((2-methoxyethyl)amino)-6-(1-phenylethoxy)-N-(5-(pyridin-4-yl)-1,3,4-thiadiazol-2-yl)nicotinamide] | 18
3 | CN1CCN(c2cc(C(=O)Nc3nnc(-c4ccncc4)s3)cnc2OCc2ccccc2)CC1 [Example 24, 6-(benzyloxy)-5-(4-methylpiperazin-1-yl)-N-(5-(pyridin-4-yl)-1,3,4-thiadiazol-2-yl)nicotinamide] | 62
4 | CC(C)(O)[C@H](Oc1ncc(C(=O)Nc2nnc(-c3ccncc3)s2)cc1Cl)c1ccccc1 [Example 29, (R)-5-chloro-6-(2-hydroxy-2-methyl-1-phenylpropoxy)-N-(5-(pyridin-4-yl)-1,3,4-thiadiazol-2-yl)nicotinamide] | 64
5 | CC(Cc1ccccc1)Oc1ccc(C(=O)Nc2nnc(-c3ccncc3)s2)cn1 (centres unmarked) [Example 34, 6-((1-phenylpropan-2-yl)oxy)-N-(5-(pyridin-4-yl)-1,3,4-thiadiazol-2-yl)nicotinamide] | 45
6 | C[C@H](Oc1ncc(C(=O)Nc2nnc(-c3ccncc3)s2)cc1OCC1CCOCC1)c1ccccc1 [Example 37, (S)-6-(1-phenylethoxy)-N-(5-(pyridin-4-yl)-1,3,4-thiadiazol-2-yl)-5-((tetrahydro-2H-pyran-4-yl)methoxy)nicotinamide] | 38
7 | O=C(Nc1nnc(-c2ccncc2)s1)c1ccc(O[C@@H](CN2CCOCC2)c2ccccc2)nc1 [Example 39, (R)-6-(2-morpholino-1-phenylethoxy)-N-(5-(pyridin-4-yl)-1,3,4-thiadiazol-2-yl)nicotinamide] | 100
8 | COc1cc(C(=O)Nc2nnc(-c3ccncc3)s2)ccc1CN1Cc2ccccc2C1 [Example 40, 4-(isoindolin-2-ylmethyl)-3-methoxy-N-(5-(pyridin-4-yl)-1,3,4-thiadiazol-2-yl)benzamide] | 190
